In data set [1] the target is T1, human calcitonin receptor (hCTR2) (Homo sapiens, UniProt P30988).
T1 construct: expressed in transfected cells
T1 sequence (P30988 25-474): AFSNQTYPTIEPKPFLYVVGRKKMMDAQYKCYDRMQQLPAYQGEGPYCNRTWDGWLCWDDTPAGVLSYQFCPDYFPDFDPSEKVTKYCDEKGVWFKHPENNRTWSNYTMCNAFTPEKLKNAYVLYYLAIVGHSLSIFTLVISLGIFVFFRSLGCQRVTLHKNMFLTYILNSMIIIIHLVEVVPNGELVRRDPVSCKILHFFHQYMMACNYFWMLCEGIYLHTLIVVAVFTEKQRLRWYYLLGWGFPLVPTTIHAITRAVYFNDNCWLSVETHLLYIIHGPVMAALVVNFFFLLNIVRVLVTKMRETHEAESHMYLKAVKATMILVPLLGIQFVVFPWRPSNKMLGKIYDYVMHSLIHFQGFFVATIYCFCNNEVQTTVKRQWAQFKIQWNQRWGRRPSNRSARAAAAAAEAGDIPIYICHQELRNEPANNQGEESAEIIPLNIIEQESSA
The data set is described as follows: hCTR2 assay: induction of cAMP (AlphaScreen cAMP Assay kit) in COS7 cells expressing hCTR2. Format: cell-based. A digest of the protocol:
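COS7 stable hCTR2 clone (RAMP-free); peptide dose-response 15 min 37° C in Tyrode pH 7.4 + 100 µM IBMX + 0.1% casein; lysis 10 min RT; AlphaScreen cAMP; 4PL fit.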
A general note: Bead proximity is the source of the signal in Alpha formats.

Data set [2] in a line: Solubility assessment (turbidity absorbance at 325 nm). Format: physicochemical. Conditions: stock 2 mg/ml diluted 1:1, ambient temperature (typically 25°C), n=1; for Solubility, Acetate buffer pH 4: 100 mM acetate buffer pH 4.0; for Solubility, Acetate buffer pH 5: 100 mM acetate buffer pH 5.0; for Solubility, Histidine buffer pH 6: 100 mM histidine buffer pH 6.0; for Solubility, Histidine buffer pH 7: 100 mM histidine buffer pH 7.0; for Solubility, Phosphate buffer pH 6: 100 mM phosphate buffer pH 6.0; for Solubility, Phosphate buffer pH 7: 100 mM phosphate buffer pH 7.0; for Solubility, Phosphate buffer pH 7.5: 100 mM phosphate buffer pH7.5. A digest of the protocol:
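Peptide stock (2 mg/ml) in water acidified to pH 2.5 with HCl was diluted 1:1 into 100 mM acetate (pH 4.0, 5.0), histidine (pH 6.0, 7.0) or phosphate (pH 6.0, 7.0, 7.5) buffer. A280 and A325 were read at about 25°C, n=1. A325 ≤ 0.02 meant solubility ≥ 1 mg/ml.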

Where [3] appears, read: cAMP induction in COS7 cells expressing hCTR2, average of a minimum of 3 determinations, read-out: hCTR2 EC50.

Read-outs that look alike come from different tables or passages of the source. Numbered stars: 1 amine (or outer) side, 2 acyl side, 3 side chain; on linkers, the order of the positions; unused ones are H or OH. Bridge positions count the residues as written; N and C are the ends. Square brackets hold non-standard residues; d marks the D form. Peptide text beside a SMILES is read from it. * marks the point of attachment. C20 diacid = O=C(O)CCCCCCCCCCCCCCCCCCC(=O)*; γGlu = O=C(O)[C@H](CCC(=O)[*:2])N[*:1]; NMeI = CC[C@H](C)[C@H](NC)C(=O)O; Sar = CNCC(=O)O

These results are taken from patent publication EP3046573B1, “AMYLIN ANALOGUES” (Zealand Pharma A/S, priority 2013, dated 2015).

The term EC50 denotes the concentration giving half of the maximal effect.

Take `CC[C@H](C)[C@@H](C(=O)N[C@@H](CC(C)C)C(=O)N[C@H](CO)C(=O)N[C@@H](CO)C(=O)N[C@H](C(=O)N[C@@H](CC(N)=O)C(=O)N[C@H](C(=O)NCC(=O)N[C@@H](CO)C(=O)N[C@@H](CC(N)=O)C(=O)N[C@H](C(=O)N1CCC[C@H]1C(N)=O)[C@@H](C)O)C(C)C)[C@@H](C)O)N(C)C(=O)CN(C)C(=O)[C@H](Cc1ccccc1)NC(=O)[C@H](CC(N)=O)NC(=O)[C@H](CC(N)=O)NC(=O)[C@H](CO)NC(=O)[C@H](CO)NC(=O)[C@H](Cc1c[nH]cn1)NC(=O)[C@H](Cc1c[nH]cn1)NC(=O)[C@H](CC(C)C)NC(=O)[C@H](Cc1ccccc1)NC(=O)[C@H](CCC(=O)O)NC(=O)[C@H](C)NC(=O)[C@H](CC(C)C)NC(=O)[C@H](CCCNC(=N)N)NC(=O)[C@H](CCC(N)=O)NC(=O)[C@@H](NC(=O)[C@H](C)NC(=O)[C@@H]1CSSC[C@H](NC(=O)[C@H](CCCNC(=N)N)NC(=O)CC[C@H](NC(=O)CCCCCCCCCCCCCCCCCCC(=O)O)C(=O)O)C(=O)N[C@@H](CC(N)=O)C(=O)N[C@@H]([C@@H](C)O)C(=O)N[C@@H](C)C(=O)N[C@@H]([C@@H](C)O)C(=O)N1)[C@@H](C)O` [Compound 24, [19CD]-isoGlu-RC()NTATC()ATQRLAEFLHHSSNNF-Gly(Me)-Ile(Me)-L-DSer-STNVGSNTP-NH2] ({C20 diacid-γGlu}-RCNTATCATQRLAEFLHHSSNNF[Sar][NMeI]L[dS]STNVGSNTP-NH2; disulfide 2-7): the EC50 in data set [1] (setting [3]) was 0.13 nM. For the same compound, in data set [2], the “Solubility, Acetate buffer pH 4” value is “SS (SS indicates solubility ≥ 1mg/ml)”; the “Solubility, Acetate buffer pH 5” value is listed as “SS (SS indicates solubility ≥ 1mg/ml)”; the “Solubility, Histidine buffer pH 6” value is reported as “SS (SS indicates solubility ≥ 1mg/ml)”; the “Solubility, Histidine buffer pH 7” value is “SS (SS indicates solubility ≥ 1mg/ml)”. Besides, in data set [2], the “Solubility, Phosphate buffer pH 6” value is “SS (SS indicates solubility ≥ 1mg/ml)”; the “Solubility, Phosphate buffer pH 7” value was “SS (SS indicates solubility ≥ 1mg/ml)”; the “Solubility, Phosphate buffer pH 7.5” value is reported as “SS (SS indicates solubility ≥ 1mg/ml)”.
`CC[C@H](C)[C@@H](C(=O)N[C@@H](CC(C)C)C(=O)N[C@@H](CO)C(=O)N[C@H](C(=O)N[C@@H](CC(N)=O)C(=O)N[C@H](C(=O)NCC(=O)N[C@@H](CO)C(=O)N[C@@H](CC(N)=O)C(=O)N[C@H](C(=O)N1CCC[C@H]1C(N)=O)[C@@H](C)O)C(C)C)[C@@H](C)O)N(C)C(=O)[C@H](C)NC(=O)CN(C)C(=O)[C@H](Cc1ccccc1)NC(=O)[C@H](CC(N)=O)NC(=O)[C@H](CC(N)=O)NC(=O)[C@H](CO)NC(=O)[C@H](CO)NC(=O)[C@H](Cc1c[nH]cn1)NC(=O)[C@H](Cc1c[nH]cn1)NC(=O)[C@H](CC(C)C)NC(=O)[C@H](Cc1ccccc1)NC(=O)[C@H](CCC(=O)O)NC(=O)[C@H](C)NC(=O)[C@H](CC(C)C)NC(=O)[C@H](CCCNC(=N)N)NC(=O)[C@H](CCC(N)=O)NC(=O)[C@@H](NC(=O)[C@H](C)NC(=O)[C@@H]1CSSC[C@H](NC(=O)[C@H](CCCNC(=N)N)NC(=O)CC[C@H](NC(=O)CCCCCCCCCCCCCCCCCCC(=O)O)C(=O)O)C(=O)N[C@@H](CC(N)=O)C(=O)N[C@@H]([C@@H](C)O)C(=O)N[C@@H](C)C(=O)N[C@@H]([C@@H](C)O)C(=O)N1)[C@@H](C)O` [Compound 25, [19CD]-isoGlu-RC()NTATC()ATQRLAEFLHHSSNNF-Gly(Me)-A-Ile(Me)-LSTNVGSNTP-NH2] ({C20 diacid-γGlu}-RCNTATCATQRLAEFLHHSSNNF[Sar]A[NMeI]LSTNVGSNTP-NH2; disulfide 2-7): in data set [1], the EC50 is 0.1 nM. In data set [2], the “Solubility, Acetate buffer pH 4” value was “SS (SS indicates solubility ≥ 1mg/ml)”; the “Solubility, Acetate buffer pH 5” value is on record as “SS (SS indicates solubility ≥ 1mg/ml)”; the “Solubility, Histidine buffer pH 6” value is “SS (SS indicates solubility ≥ 1mg/ml)”; the “Solubility, Histidine buffer pH 7” value is reported as “SS (SS indicates solubility ≥ 1mg/ml)”. In data set [2], the “Solubility, Phosphate buffer pH 6” value is reported as “SS (SS indicates solubility ≥ 1mg/ml)”; the “Solubility, Phosphate buffer pH 7” value is “SS (SS indicates solubility ≥ 1mg/ml)”; the “Solubility, Phosphate buffer pH 7.5” value is recorded as “SS (SS indicates solubility ≥ 1mg/ml)”.
On to `CC[C@H](C)[C@@H](C(=O)N[C@@H](CC(C)C)C(=O)N[C@@H](CO)C(=O)N[C@H](C(=O)N[C@@H](CC(N)=O)C(=O)N[C@H](C(=O)NCC(=O)N[C@@H](CO)C(=O)N[C@@H](CC(N)=O)C(=O)N[C@H](C(=O)N1CCC[C@H]1C(N)=O)[C@@H](C)O)C(C)C)[C@@H](C)O)N(C)C(=O)CN(C)C(=O)[C@H](Cc1ccccc1)NC(=O)[C@H](CC(N)=O)NC(=O)[C@H](CC(N)=O)NC(=O)[C@H](CO)NC(=O)[C@H](CO)NC(=O)[C@H](Cc1c[nH]cn1)NC(=O)[C@H](Cc1c[nH]cn1)NC(=O)[C@H](CC(C)C)NC(=O)[C@H](Cc1ccccc1)NC(=O)[C@H](CCC(=O)O)NC(=O)[C@H](C)NC(=O)[C@H](CC(C)C)NC(=O)[C@H](CCCNC(=N)N)NC(=O)[C@H](CCC(N)=O)NC(=O)[C@@H](NC(=O)[C@H](C)NC(=O)[C@@H]1CSSC[C@H](NC(=O)[C@H](CCCNC(=N)N)NC(=O)CC[C@H](NC(=O)CCCCCCCCCCCCCCCCCCC(=O)O)C(=O)O)C(=O)N[C@@H](CC(N)=O)C(=O)N[C@@H]([C@@H](C)O)C(=O)N[C@@H](C)C(=O)N[C@@H]([C@@H](C)O)C(=O)N1)[C@@H](C)O` [Compound 26, [19CD]-isoGlu-RC()NTATC()ATQRLAEFLHHSSNNF-Gly(Me)-Ile(Me)-LSTNVGSNTP-NH2] ({C20 diacid-γGlu}-RCNTATCATQRLAEFLHHSSNNF[Sar][NMeI]LSTNVGSNTP-NH2; disulfide 2-7), for which the half-maximal effective concentration (EC50) in data set [1] (setting [3]) was 0.11 nM. In data set [2], the “Solubility, Acetate buffer pH 4” value was “SS (SS indicates solubility ≥ 1mg/ml)”; the “Solubility, Acetate buffer pH 5” value is reported as “SS (SS indicates solubility ≥ 1mg/ml)”; the “Solubility, Histidine buffer pH 6” value is reported as “SS (SS indicates solubility ≥ 1mg/ml)”; the “Solubility, Histidine buffer pH 7” value was “SS (SS indicates solubility ≥ 1mg/ml)”. Moreover, in data set [2], the “Solubility, Phosphate buffer pH 6” value is given as “SS (SS indicates solubility ≥ 1mg/ml)”; the “Solubility, Phosphate buffer pH 7” value is reported as “SS (SS indicates solubility ≥ 1mg/ml)”; the “Solubility, Phosphate buffer pH 7.5” value is “SS (SS indicates solubility ≥ 1mg/ml)”.
